Data reported in paper PMC2248166, “Quantitative peptide binding motifs for 19 human and mouse MHC class I molecules derived using positional scanning combinatorial peptide libraries” (Immunome Research, 2008).

Columns and labels:
HLA B*0702 = HLA B*0702 (Homo sapiens, UniProt P01889); type: binding; conditions: positional scanning combinatorial 9-mer library; normalized to 1.0 for the best residue at each position
H-2 D^d = H-2 D^d (Mus musculus, UniProt P01900); type: binding
HLA B*5801 = HLA B*5801 (Homo sapiens, UniProt P01889, A329T/C349S/D201E/D98Y/E176V/E187L/E204Q/E69T/G107R/I218V/I90N/K202T/L105A/L119I/N104I/N87E/Q89R/Q94S/R106L/R155S/R180L/R86G/S101N/S121R/S35A/S48A/T118I/V127L/V306I/V36M/Y140S/Y91M); type: binding
HLA A*0201 = HLA A*0201 (Homo sapiens, UniProt P04439, D140Y/D185E/D98H/E176V/E277Q/G131W/G231S/I119V/I121R/I166T/I218V/L300P/L318F/N151K/N90K/P208A/P217A/Q86G/Q94H/R138H/R169H/T345S); conditions: positional scanning combinatorial 9-mer library; normalized to 1.0 for the best residue at each position
HLA B*5401 = HLA B*5401 (Homo sapiens, UniProt P01889, A329T/C349S/D138N/D201E/E176V/E187T/E204Q/E69G/I76V/K202T/L119W/R155S/R180L/S121T/S35A/S48A/V127L/V306I/V36M/Y140L); type: binding
HLA A*3201 = HLA A*3201 (Homo sapiens, UniProt P04439, A270S/D101S/D185E/E176V/E277Q/F133L/G103R/G107R/G231S/H175R/I121M/I218V/I322F/K168Q/L105A/L300P/L318F/M331R/P208A/P217A/Q94H/R106L/R138Q/S129P/T104I/T323A/T345S/V100E/V321M/V358M); test: biochemical; type: binding
HLA B*5301 = HLA B*5301 (Homo sapiens, UniProt P01889, A329T/A93T/A95T/C349S/D201E/D98Y/E176V/E187L/E204Q/E69T/G107R/I218V/K202T/L105A/L119I/N104I/Q94N/R106L/R155S/R180L/S101N/S121R/S35A/S48A/T118I/V127L/V306I/V36M/Y140S/Y91F); type: binding
H-2 D^b = H-2 D^b (Mus musculus, UniProt P01899); type: binding
HLA B*1503 = HLA B*1503 (Homo sapiens, UniProt P01889, A329T/A93T/A95T/C349S/D201E/D98Y/E187L/E204Q/K202T/N87E/Q94N/R155S/R180L/S121R/S35A/V306I/V36M/Y140S/Y91S); test: biochemical; type: binding
HLA B*2705 = HLA B*2705 (Homo sapiens, UniProt P01889, D138H/D201E/E176V/E204Q/G107R/H137Y/K202T/N104T/N87E/Q56L/Q94K/R106L/R155S/R180L/S101D/S121N/S48T/Y140D/Y33H/Y91C); type: binding; conditions: positional scanning combinatorial 9-mer library; normalized to 1.0 for the best residue at each position
HLA B*5101 = HLA B*5101 (Homo sapiens, UniProt P01889, A329T/A93T/A95T/C349S/D138N/D201E/D98Y/E187L/E204Q/E69T/G107R/I218V/K202T/L105A/L119W/N104I/Q94N/R106L/R155S/R180L/S101N/S121T/S35A/S48A/V306I/V36M/Y195H/Y91F); type: binding
HLA B*1501 = HLA B*1501 (Homo sapiens, UniProt P01889, A329T/A93T/A95T/C349S/D201E/D98Y/E187L/E204Q/E69M/E70A/K202T/N87E/Q94N/R155S/R180W/S121R/S35A/S48A/V306I/V36M/Y140S/Y91S); test: biochemical; type: binding
HLA B*5802 = HLA B*5802 (Homo sapiens, UniProt P01889, A329T/C349S/D201E/D98Y/E176V/E187L/E204Q/E69T/G107R/I218V/I90N/K202T/L105A/N104I/N87E/Q89R/Q94S/R106L/R155S/R180L/R86G/S101N/S121W/S35A/S48A/V127L/V306I/V36M/Y140S/Y91M); type: binding
HLA A*3001 = HLA A*3001 (Homo sapiens, UniProt P04439, D140H/D185E/E176W/F33S/G80R/H175R/K168Q/R138E/R41S); test: biochemical; type: binding
HLA B*3501 = HLA B*3501 (Homo sapiens, UniProt P01889, A329T/A93T/A95T/C349S/D201E/D98Y/E176V/E187L/E204Q/E69T/I218V/K202T/L119I/Q94N/R155S/R180L/S121R/S35A/S48A/T118I/V127L/V306I/V36M/Y140S/Y91F); type: binding
HLA B*0801 = HLA B*0801 (Homo sapiens, UniProt P01889, A93T/A95T/D138N/E176V/E187T/K202T/Q94N/R180D/S35A/V36M/Y33D/Y91F); test: biochemical; type: binding
H-2 K^k = H-2 K^k (Mus musculus, UniProt P04223); type: binding
HLA A*6802 = HLA A*6802 (Homo sapiens, UniProt P04439, A269V/D140Y/D185E/E176V/E277Q/E87N/F33Y/G231S/I121R/I166T/I218V/L180W/L300P/L318F/N151K/P208A/P217A/Q86R/R138H/R169H/S129P/T345S/V36M); type: binding

Chain of H-2 K^k (P01887 21-119): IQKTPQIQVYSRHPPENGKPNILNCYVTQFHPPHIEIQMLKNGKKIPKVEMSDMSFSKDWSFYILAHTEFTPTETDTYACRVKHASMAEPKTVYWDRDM
Chain of H-2 K^k (P04223 22-369): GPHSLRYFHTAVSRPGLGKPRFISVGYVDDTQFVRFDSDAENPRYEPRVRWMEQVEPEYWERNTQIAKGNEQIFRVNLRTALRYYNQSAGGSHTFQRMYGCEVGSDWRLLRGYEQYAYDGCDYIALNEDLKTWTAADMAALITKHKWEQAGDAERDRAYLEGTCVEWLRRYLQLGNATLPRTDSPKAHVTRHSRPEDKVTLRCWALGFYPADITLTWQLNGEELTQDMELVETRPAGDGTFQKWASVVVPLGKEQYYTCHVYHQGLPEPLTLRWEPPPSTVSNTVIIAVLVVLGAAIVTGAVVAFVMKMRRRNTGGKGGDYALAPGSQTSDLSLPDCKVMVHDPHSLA
Chain of H-2 D^b (P01887 21-119): as the sequence (P01887 21-119) above
Chain of H-2 D^b (P01899 25-362): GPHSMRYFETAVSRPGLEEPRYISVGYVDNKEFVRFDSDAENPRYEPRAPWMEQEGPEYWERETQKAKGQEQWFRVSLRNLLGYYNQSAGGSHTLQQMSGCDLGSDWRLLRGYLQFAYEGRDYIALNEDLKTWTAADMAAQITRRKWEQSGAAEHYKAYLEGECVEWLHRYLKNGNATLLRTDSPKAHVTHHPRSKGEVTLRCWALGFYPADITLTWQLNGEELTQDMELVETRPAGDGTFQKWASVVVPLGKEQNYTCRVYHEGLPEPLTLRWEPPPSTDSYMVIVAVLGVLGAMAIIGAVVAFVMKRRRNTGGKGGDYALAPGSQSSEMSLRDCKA
Chain of H-2 D^d (P01900 whole entry, looked up): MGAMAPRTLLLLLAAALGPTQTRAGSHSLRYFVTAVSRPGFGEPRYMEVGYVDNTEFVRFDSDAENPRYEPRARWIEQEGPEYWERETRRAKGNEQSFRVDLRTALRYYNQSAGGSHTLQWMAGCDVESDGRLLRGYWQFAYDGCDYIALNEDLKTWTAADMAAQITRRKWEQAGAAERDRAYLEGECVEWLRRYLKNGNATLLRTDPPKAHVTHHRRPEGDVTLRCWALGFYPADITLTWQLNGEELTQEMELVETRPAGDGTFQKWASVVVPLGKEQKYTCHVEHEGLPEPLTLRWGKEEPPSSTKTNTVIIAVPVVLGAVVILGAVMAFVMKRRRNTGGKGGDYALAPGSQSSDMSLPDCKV

Sequence	Normalized average relative binding affinity (ARB), HLA B*0702 (HLA B*0702)	Normalized average relative binding affinity (ARB), H-2 Dd (H-2 D^d)	Normalized average relative binding affinity (ARB), HLA B*5801 (HLA B*5801)	Normalized average relative binding affinity (ARB), HLA A*0201 (HLA A*0201)	Normalized average relative binding affinity (ARB), HLA B*5401 (HLA B*5401)	Normalized average relative binding affinity (ARB), HLA A*3201 (HLA A*3201)	Normalized average relative binding affinity (ARB), HLA B*5301 (HLA B*5301)	Normalized average relative binding affinity (ARB), H-2 Db (H-2 D^b)	Normalized average relative binding affinity (ARB), HLA B*1503 (HLA B*1503)	Normalized average relative binding affinity (ARB), HLA B*2705 (HLA B*2705)	Normalized average relative binding affinity (ARB), HLA B*5101 (HLA B*5101)	Normalized average relative binding affinity (ARB), HLA B*1501 (HLA B*1501)	Normalized average relative binding affinity (ARB), HLA B*5802 (HLA B*5802)	Normalized average relative binding affinity (ARB), HLA A*3001 (HLA A*3001)	Normalized average relative binding affinity (ARB), HLA B*3501 (HLA B*3501)	Normalized average relative binding affinity (ARB), HLA B*0801 (HLA B*0801)	Normalized average relative binding affinity (ARB), H-2 Kk (H-2 K^k)	Normalized average relative binding affinity (ARB), HLA A*6802 (HLA A*6802)
XYXXXXXXX [3064.0040]	0.0050	0.013	0.029	0.0078	0.0039	0.032	0.0053	0.071	0.017	0.0026	0.053	0.028	0.030	0.46	0.012	0.066	0.0099	0.017
YXXXXXXXX [3064.0020]	0.25	0.41	0.20	0.11	0.12	0.12	0.36	0.57	0.34	0.85	1.0	0.33	0.46	0.064	0.19	0.24	0.63	0.24
